Tests used:
trans-sialidase TS1 = test: Trans-sialidase transfer activity of TS1 in the presence of salts, metal ions and putative inhibitors; format: biochemical, Trypanosoma congolense; conditions: for Effect of putative inhibitors: 10 mM; for Salt effect: reduction of enzyme activity: 1M salt, de-salting produces enzyme activity again
Procedure: (§1) In order to determine the transfer activity of the trans-sialidase, 25 μl enzyme solution in 50 mM BisTris buffer, pH7.0, are incubated together with 1 mM NeufAc-α(2-3) lactose as a donor and 0.5 mM 4-methylumbelliferyl galactoside as an acceptor in a final volume of 50 μl at 37° C. for 2 hrs. The incubation is halted by adding 1 ml ice cold water. The reaction batch is then introduced to columns previously filled with 0.3 ml Q Sepharose FF (acetate form) and pre-equilibrated with water. After having washed out the acceptor with water and having discarded the dead volume (200 μl 1N HCl), the sialated product is eluated with 1N HCl (700 μl). Following acid hydrolysis of the product at 95° C. for 45 mins and cooling on ice, the probe is neutralised with 250-290 μl 2 N NaOH and 300 μl 1M glycin/NaOH buffer pH 10.0. The fluorescence of the released methylumbelliferone is measured in black 96 well plates (Microfluor, Dynex, U.S.A.) with a stimulation wave length of 365 nm and an emission wave length of 450 nm. The activity of the enzyme corresponds to the intensity of the fluorescence measured and can be read off on a previously established calibration curve (method in accordance with Engstler et al. 1992).

trans-sialidase TS2 = test: Trans-sialidase transfer activity of TS2 in the presence of salts, metal ions and putative inhibitors; format: biochemical, Trypanosoma congolense; conditions: for Effect of putative inhibitors: 10 mM; for Salt effect: reduction of enzyme activity: 1M salt, de-salting produces enzyme activity again
Procedure: as §1

For [Ca+2] [Ca^2+], the “Effect of metal ions” value (trans-sialidase TS1; 20 mM) was 20 mM Ca^2+, Mg^2+, Mn^2+: no effect 5 mM and the “Effect of metal ions” value (trans-sialidase TS2; 20 mM) was 20 mM Ca^2+, Mg^2+, Mn^2+: no effect 5 mM.
[Mg+2] [Mg^2+] was tested, and the “Effect of metal ions” value (trans-sialidase TS1; 20 mM) was 20 mM Ca^2+, Mg^2+, Mn^2+: no effect 5 mM and the “Effect of metal ions” value (trans-sialidase TS2; 20 mM) was 20 mM Ca^2+, Mg^2+, Mn^2+: no effect 5 mM.
[Zn+2] [Zn^2+] was tested, and the “Effect of metal ions” value (trans-sialidase TS1; 5 mM) was “Cu^2+, Zn^2+, Fe^2+, Co^2+: little effect” and the “Effect of metal ions” value (trans-sialidase TS2; 5 mM) was “Cu^2+, Zn^2+, Fe^2+, Co^2+: little effect”.
In the case of [Co+2] [Co^2+], the “Effect of metal ions” value (trans-sialidase TS1; 5 mM) is reported as “Cu^2+, Zn^2+, Fe^2+, Co^2+: little effect” and the “Effect of metal ions” value (trans-sialidase TS2; 5 mM) is reported as “Cu^2+, Zn^2+, Fe^2+, Co^2+: little effect”.
In the case of [Mn+2] [Mn^2+], the “Effect of metal ions” value (trans-sialidase TS1; 20 mM) is reported as 20 mM Ca^2+, Mg^2+, Mn^2+: no effect 5 mM and the “Effect of metal ions” value (trans-sialidase TS2; 20 mM) is reported as 20 mM Ca^2+, Mg^2+, Mn^2+: no effect 5 mM.
In the case of CC(=O)N[C@H]1[C@H]([C@H](O)[C@H](O)CO)OC(C(=O)O)=C[C@@H]1O [N-acetyl-2,3-didehydro-2-deoxyneuraminic acid, reference compound], the “Effect of putative inhibitors” value (trans-sialidase TS1) is reported as “acid: little inhibition” and the “Effect of putative inhibitors” value (trans-sialidase TS2) is reported as “acid: little inhibition”.
With [Fe+2] [Fe^2+] the “Effect of metal ions” value (trans-sialidase TS1; 5 mM) was “Cu^2+, Zn^2+, Fe^2+, Co^2+: little effect” and the “Effect of metal ions” value (trans-sialidase TS2; 5 mM) was “Cu^2+, Zn^2+, Fe^2+, Co^2+: little effect”.
In the case of O=C(O)C(=O)Nc1ccc([N+](=O)[O-])cc1 [N-(4-nitrophenyl)oxamic acid, reference compound], the “Effect of putative inhibitors” value (trans-sialidase TS1) is reported as 10 mM N-(4-nitrophenyl)oxamic acid: little and the “Effect of putative inhibitors” value (trans-sialidase TS2) is reported as 10 mM N-(4-nitrophenyl)oxamic acid: little.
[Cl-].[K+] [KCl] was tested, and the “Salt effect: reduction of enzyme activity” value (“Salt effect: reduction” for short) (trans-sialidase TS1) was “enzymes by 50%, de-salting produces enzyme” and the “Salt effect: reduction” value (trans-sialidase TS2) was “enzymes by 50%, de-salting produces enzyme”.
In the case of [Cu+2] [Cu^2+], the “Effect of metal ions” value (trans-sialidase TS1; 5 mM) is reported as “Cu^2+, Zn^2+, Fe^2+, Co^2+: little effect” and the “Effect of metal ions” value (trans-sialidase TS2; 5 mM) is reported as “Cu^2+, Zn^2+, Fe^2+, Co^2+: little effect”.
[Cl-].[Na+] [NaCl] was tested, and the “Salt effect: reduction” value (trans-sialidase TS1) was “enzymes by 50%, de-salting produces enzyme” and the “Salt effect: reduction” value (trans-sialidase TS2) was “enzymes by 50%, de-salting produces enzyme”.
